Earlier results as cited in patent US20060270610A1, “Novel compounds for hypoxic cell therapy and imaging” (priority 2005, published 2006).
Where two headings read alike, the source gives them in different places.

Tests used:
[1] = biological target: T1, NBMPR (nitrobenzylthioinosine)-sensitive equilibrative nucleoside transporter (Homo sapiens, UniProt Q99808); conditions: in vitro, erythrocytes
T1 construct: equilibrative nucleoside transporter in erythrocytes; endogenous in cells
T1 sequence (Q99808 1-456): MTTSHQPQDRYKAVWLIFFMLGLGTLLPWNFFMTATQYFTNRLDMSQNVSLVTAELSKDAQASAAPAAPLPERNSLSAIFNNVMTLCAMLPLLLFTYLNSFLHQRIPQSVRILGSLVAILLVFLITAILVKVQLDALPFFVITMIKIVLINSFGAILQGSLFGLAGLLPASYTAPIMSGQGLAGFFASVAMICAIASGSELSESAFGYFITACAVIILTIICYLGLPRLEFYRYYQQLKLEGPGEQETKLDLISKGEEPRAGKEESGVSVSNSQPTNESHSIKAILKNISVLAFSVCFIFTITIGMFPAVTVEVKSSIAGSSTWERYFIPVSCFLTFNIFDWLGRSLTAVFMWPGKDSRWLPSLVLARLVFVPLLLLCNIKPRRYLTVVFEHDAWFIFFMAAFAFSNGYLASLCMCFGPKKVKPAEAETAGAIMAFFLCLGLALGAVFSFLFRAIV

[2] = system: murine tumor models; conditions: three different murine tumor models; greater than [18F]FMISO
[3] = rats, via the renal system; compared with [18F]FMISO

O=[N+]([O-])c1nccn1[C@H]1O[C@H](CI)[C@@H](O)[C@@H]1O [IAZA, 1-α-D-(5-dexoy-5-iodorabinofuranosyl)-2-nitroimidazole]
transport by NBMPR-sensitive equilibrative nucleoside transporter [1]: not transported

O=[N+]([O-])c1nccn1[C@H]1O[C@H](C[18F])[C@@H](O)[C@@H]1O [[^18F] 1-α-D-FAZA]
tumor:blood ratios relative to [18F]FMISO [2]: 2-4 times | clearance from blood, viscera and muscle tissue [3]: faster clearance | uptake in normal brain tissue (patients studied sequentially): absence of [^18F] 1-α-D-FAZA uptake

OC[C@H]1OC(O)[C@H]([18F])[C@@H](O)[C@@H]1O (stereo partly drawn) [[^18F]FDG]
uptake in normal brain tissue (human, in vivo): taken up as a reflection of glucose metabolism in healthy brain

O=[N+]([O-])c1nccn1CC(O)C[18F] (stereo not drawn) [[^18F]FMISO]
uptake in normal brain tissue (human, in vivo): taken up non-specifically by brain
